We go through one molecule from US8475823B2, “Baclofen formulation in a polyorthoester carrier” (Medtronic, Inc., priority 2008, dated 2013).

The subject of assay [1] is normal bladder activity (frequency of reflex bladder contractions). Briefly: Epidural infusion of baclofen in a rat model of bladder pain, intravesical saline infusion (normal bladder activity). Format: in vivo. As to conditions: female rat, epidural infusion 10 μg/day. The protocol:
FIG. 1 is a graphic representation of epidural infusion of baclofen in rats treated with an intravesical infusion of saline. Baseline bladder activity was measured before epidural drug treatment as described in Example 4. The columns and error bars represent the mean and SEM values of 10 rats per group. Asterisks indicate statistically significant dose effects compared to baseline as determined by post-hoc Dunnett Multiple Comparison Test.
(§1) An animal model that has been used frequently to study pelvic pain conditions is a rat model of bladder pain. In this model, a female rat was lightly anesthetized with isoflurane and a transurethral catheter was placed into the bladder. The catheter was connected to a pressure transducer so that the pressure within the bladder could be continuously monitored and recorded over time. Fluid was continuously infused into the bladder using a syringe pump at a rate of 0.1 mL/min to cause the bladder to contract repeatedly each time it became full. This is referred to as a volume-evoked micturition reflex or contraction. A repeated series of bladder contractions (pressure spikes) over time was collected using this method. To mimic normal bladder activity, 0.9% saline was infused into the bladder; to mimic painful bladder activity, a dilute solution of acetic acid (0.5%) was infused into the bladder. […]

Assay [2] concerns acetic acid induced bladder hypermotility (frequency of bladder contraction reflexes). Briefly: Epidural infusion of baclofen in a rat model of bladder pain, intravesical acetic acid infusion (painful bladder activity). It counts as in vivo. As to conditions: female rat, epidural infusion 10 μg/day. The protocol: FIG. 2 is a graphic representation of epidural infusion of baclofen in rats treated with an intravesical infusion of acetic acid as described in Example 4. Baseline bladder activity was measured before epidural drug treatment. The columns and error bars represent the mean and SEM values of 10 rats per group. Asterisks indicate statistically significant dose effects compared to baseline as determined by post-hoc Dunnett Multiple Comparison Test.
as §1, with “contraction.” for “contraction. A repeated series of bladder contractions (pressure spikes) over time was collected using this method. To mimic normal bladder activity, 0.9% saline was infused into the bladder; to mimic painful bladder activity, a dilute solution of acetic acid (0.5%) was infused into the bladder.”
In order to evaluate the effects of epidurally administered analgesics on normal and painful bladder activity (frequency of reflex bladder contractions), test drugs were continuously administered via an epidural catheter with the tip placed in the mid-lumbar epidural space. […] In the experiments depicted in FIGS. 1 and 2, the baseline bladder activity was measured before implanting the epidural infusion system, the infusion system was implanted on day 0 and cystometrograms were recorded on three consecutive days during which baclofen (10 μg/day) was infused into the lumbar epidural space.
Baclofen at 10 μg/day reduced acetic acid induced bladder hypermotility by approximately 3 fold on day 3. The frequency of bladder contraction observed during acetic acid infusion and epidural baclofen administration was similar to the baseline bladder activity measured during saline infusion (0.195±0.047 day 3 acetic acid and epidural baclofen vs 0.193±0.035 baseline saline).

Consider `NCC(CC(=O)O)c1ccc(Cl)cc1` (centres unmarked) [baclofen, 4-amino-3-(4-chlorophenyl)butanoic acid], for which the “effects on normal bladder activity measured during saline infusion” value in assay [1] (days 1 and 2, vs baseline) is on record as “minimal effects”. Besides, the “contraction rate relative to the baseline reflex contraction rate” value in assay [1] (saline infusion, day three) is on record as “statistically significant reductions”. The “frequency of bladder contraction reflexes during acetic acid infusion” value in assay [2] (0.5% acetic acid, all three days, vs baseline) was “significantly reduced”. The “reduction of acetic acid induced bladder hypermotility” value in assay [2] (day 3) was “approximately 3 fold”. Moreover, the “frequency of bladder contraction during acetic acid infusion and epidural baclofen administration” value in assay [2] (day 3, mean ± SEM, 10 rats per group) came to 0.195±0.047 reflexes per min.
